Values joined by “and” are separate entries in the source; they are usually repeats but may differ in a detail not shown here. Equal entries are not always repeated.

Experiment [1] in a line: Cell-based assay, TGFb1 (Cell IC50).
In a further experiment the target is T1, ALK2 (Mus musculus, UniProt P37172).
T1 construct: The C2C12 cell line was selected for the measurement of ALK2 activity using BMP6 as the agonist; host or cells: C2C12
T1 sequence (P37172 21-509): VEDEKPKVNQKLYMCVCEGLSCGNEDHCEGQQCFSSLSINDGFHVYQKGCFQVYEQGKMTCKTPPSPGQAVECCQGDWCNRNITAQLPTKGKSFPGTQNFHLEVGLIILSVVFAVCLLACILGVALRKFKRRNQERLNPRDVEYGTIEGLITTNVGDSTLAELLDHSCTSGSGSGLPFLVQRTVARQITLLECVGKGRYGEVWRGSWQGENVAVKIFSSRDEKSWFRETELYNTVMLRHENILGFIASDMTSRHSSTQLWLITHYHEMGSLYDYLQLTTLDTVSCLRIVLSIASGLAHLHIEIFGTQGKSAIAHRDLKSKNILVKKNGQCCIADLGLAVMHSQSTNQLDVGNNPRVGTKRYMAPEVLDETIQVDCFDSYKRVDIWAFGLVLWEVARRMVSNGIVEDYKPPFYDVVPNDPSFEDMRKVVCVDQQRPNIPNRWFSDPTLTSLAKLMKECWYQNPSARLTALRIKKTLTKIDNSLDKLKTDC
The experiment in a line: In-cell Western ALK2 assay (C2C12 cells, BMP6 as agonist). It counts as cell-based. The following applies: read-out: BMP6 ICW. The text has this: 3. In-Cell Western ALK1 and ALK2 Assays in 384-Well Plate Format.
We also optimized cell-based In-cell Western assays for measurements of ALK1 and ALK2 activities that were used to determine compound activities in these two kinases. The cell lines and agonists used were same as described in above cell-based HTRF ALK1 and ALK2 assays. The initial cell plating and compound treatment were also same. The main difference is the detection of phosphorylation status of SMAD1. In t-cell Western assay, the cells were fixed and phosphorylation status of SMAD1 was detected by the ELISA instead of using the HTRF assay kit in above assay.
HyClone Fetal Bovine Serum was obtained from GE healthcare life sciences (Logan, Utah). BMP6 and BMP9 were purchased from R&D System (R&D). Anti-P-SMAD 1/5/8 rabbit mAb and anti-rabbit IgG, HRP-Linked antibody were purchased from Cell Signaling Technology (Danvers, Mass.). BioFX Chemiluminescent Ultra-Sensitive HRP Microwell Substrate ECL Reagent was obtained from SurModics (Edina, Minn.). The compound plates and the white solid MB assay plates were from Greiner Bio-one (Monroe, N.C.).
Similarly as described in above HTRF cell-based assay, this assay was performed in 384 well plate format. […] Pre-starved cells were then plated in 384 well plate in the starvation medium (containing in 0.1% FBS). After 4 hours, compound dilutions in DMSO were added to the assay plate and incubated for 30 minutes. The assay plate was then added with BMP6 for C2C12 cells or BMP9 for BAOEC cells and incubated for 30 minutes.
The cells were washed in the plate washer with PBS and blocked with 2% BSA in PBS for 1 h at room temperature on the rotator. After removing the blocking reagent, the cells were incubated with the anti-p-SMAD1 antibody in 2% BSA in PBS for overnight at 4° C. on rotator. The cells were washed with PBS in the plate washer and incubated with HRP conjugated second antibody in 2% BSA in PBS for 1 hour at room temperature. After a cell wash with PBS, ECL detection reagent was added and the plate was read in the luminesce mode in the ViewLux plate reader.

The subject of a further experiment is BMP4. Description: BMP4 HTRF assay. In kind it is cell-based. Background: TR-FRET usually uses a lanthanide donor and a delayed reading to cut background.
Another experiment has as its target T2, ALK1 (Bos taurus, UniProt A4FUX2).
T2 construct: The BAOEC cell line was employed for the measurement of ALK1 activity using BMP9 as the agonist; host or cells: BAOEC (bovine aortic endothelial cells)
T2 sequence (A4FUX2 23-503): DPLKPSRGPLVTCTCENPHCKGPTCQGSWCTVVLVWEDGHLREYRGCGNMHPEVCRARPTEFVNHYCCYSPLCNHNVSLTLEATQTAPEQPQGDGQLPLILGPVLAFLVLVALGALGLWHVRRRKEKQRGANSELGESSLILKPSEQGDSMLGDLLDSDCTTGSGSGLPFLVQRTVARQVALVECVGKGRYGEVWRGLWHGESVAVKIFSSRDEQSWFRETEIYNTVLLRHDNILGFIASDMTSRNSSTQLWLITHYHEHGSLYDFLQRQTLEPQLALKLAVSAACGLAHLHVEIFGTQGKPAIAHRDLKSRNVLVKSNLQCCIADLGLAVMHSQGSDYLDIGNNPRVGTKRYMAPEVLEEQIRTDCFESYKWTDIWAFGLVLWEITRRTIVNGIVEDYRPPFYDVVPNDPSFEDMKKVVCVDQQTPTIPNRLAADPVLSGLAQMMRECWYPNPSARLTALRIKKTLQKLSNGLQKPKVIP
The experiment in a line: HTRF pSMAD1 cell-based ALK1 assay (BAOEC cells, BMP9 as agonist). The arrangement: species or system Bovine. The method, then:
2. HTRF Cell-Based ALK1 and ALK2 Assays in 384-Well Plate Format We have developed a cell based ALK1 kinase assay and a cell-based ALK2 assay. The BAOEC cell line was employed for the measurement of ALK1 activity using BMP9 as the agonist. The C2C12 cell line was selected for the measurement of ALK2 activity using BMP6 as the agonist. The kinase specificity was defined by the specific cell line and agonist. The kinase activity was determined by the status of SMD 1/5/8 phosphorylation stimulated by the agonist.
HyClone Fetal Bovine Serum was obtained from GE healthcare life sciences (Logan, Utah). BMP6 and BMP9 were purchased from R&D System. […] The compound plates and the white solid MB assay plates were purchased from Greiner Bio-one (Monroe, N.C.).
HTRF optimization experiments were performed in 384 well plate format. […] Pre-starved cells were then plated in 384 well plate in the starvation medium (containing in 0.1% FBS). After 4 hours, compounds were added to the assay plate and incubated for 30 minutes. The assay plate was then added with BMP6 for C2C12 cells or BMP9 for BAOEC cells and incubated for 30 minutes.
HTRF assay was performed to measure the status of SMAD 1 phosphorylation after stimulated with the agonist (Table 3). This HTRF phospho SMAD1 cell assay was developed and optimized for the homogenous detection of phospho SMAD 1 levels in cells. […] The plate was incubated at room temperature for overnight.

Compound `CC(C)(CN1CCCCC1)Oc1ccc(-c2cnc3c(-c4cccc5c(C(N)=O)cccc45)cnn3c2)cc1` [Compound 18, 5-(6-(4-((2-methyl-1-(piperidin-1-yl)propan-2-yl)oxy)phenyl)pyrazolo[1,5-a]pyrimidin-3-yl)-1-naphthamide] had an IC50 in experiment [1] of 270 nM.
With `CC(C)S(=O)(=O)c1cccc(-c2cnn3cc(-c4ccc(CCN5CCCCC5)cc4)cnc23)c1` [Compound 113, 3-(3-(isopropylsulfonyl)phenyl)-6-(4-(2-(piperidin-1-yl)ethyl)phenyl)pyrazolo[1,5-a]pyrimidine], on ALK2, the IC50 is 360 nM and 220 nM.
Regarding `C[C@@H]1CNC[C@H](C)N1c1ccc(-c2cnc3c(-c4cccc(C(C)(C)O)c4)cnn3c2)cc1` [Compound 103, 2-(3-(6-(4-((2R,6S)-2,6-dimethylpiperazin-1-yl)phenyl)pyrazolo[1,5-a]pyrimidin-3-yl)phenyl)propan-2-ol], the IC50 in the experiment on BMP4 amounted to 130 nM; at ALK1, 14 nM.
As for `CC(C)S(=O)(=O)c1cccc(-c2cnn3cc(-c4ccc(N5[C@H](C)CNC[C@@H]5C)cc4)cnc23)c1` [Compound 114, 6-(4-((2R,6S)-2,6-dimethylpiperazin-1-yl)phenyl)-3-(3-(isopropylsulfonyl)phenyl)pyrazolo[1,5-a]pyrimidine], the IC50 on ALK2 was 110 nM and 88 nM.
On the same count and under the same terms, the figure for `CS(=O)(=O)c1cccc(-c2cnn3cc(-c4ccc(CN5CCCCC5)cc4)cnc23)c1` [Compound 123, 3-(3-(methylsulfonyl)phenyl)-6-(4-(piperidin-1-ylmethyl)phenyl)pyrazolo[1,5-a]pyrimidine] is 300 nM and 100 nM.
Take `C[S+](=O)([O-])c1cccc(-c2cnn3cc(-c4ccc(OC5(CN6CCCCC6)COC5)cc4)cnc23)c1` [Compound 93, 3-(3-(methylsulfonyl)phenyl)-6-(4-((3-(piperidin-1-ylmethyl)oxetan-3-yl)oxy)phenyl)pyrazolo[1,5-a]pyrimidine]: the IC50 came to 100 nM in the experiment with BMP4, 180 nM on ALK1 and 100000 nM in experiment [1].
For `NS(=O)(=O)c1ccc(-c2cnn3cc(-c4ccc(CCN5CCCCC5)cc4)cnc23)c2ccccc12` [Compound 54, 4-(6-(4-(2-(piperidin-1-yl)ethyl)phenyl)pyrazolo[1,5-a]pyrimidin-3-yl)naphthalene-1-sulfonamide], the IC50 at ALK2 is 240 nM and 300 nM and 170 nM and 160 nM.
Turning to `C[S+](=O)([O-])c1cccc(-c2cnn3cc(-c4ccc(OCCN5CCCCC5)cc4)cnc23)c1` [Compound 109], the IC50 on ALK2 is 190 nM and 300 nM.
With `CC(O)c1cccc(-c2cnn3cc(-c4ccc(N5[C@H](C)CNC[C@@H]5C)cc4)cnc23)c1` (stereo partly drawn) [Compound 83, 1-(3-(6-(4-((2R,6S)-2,6-dimethylpiperazin-1-yl)phenyl)pyrazolo[5-a]pyrimidin-3-yl)phenyl)ethanol], the values for the IC50 (on ALK1; in experiment [1]) were 100 nM and 956 nM, respectively.
As for `C[C@@H]1CNC[C@H](C)N1c1ccc(-c2cnc3c(-c4cccc(S(C)(=O)=O)c4)cnn3c2)cc1` [Compound 82, 6-(4-((2R,6S)-2,6-dimethylpiperazin-1-yl)phenyl)-3-(3-(methylsulfonyl)phenyl)pyrazolo[1,5-a]pyrimidine], the results for the IC50 in the experiment with BMP4 and at ALK1 were 180 nM and 190 nM, respectively.
For `C[S+](=O)([O-])c1cccc(-c2cnn3cc(-c4ccc(OC5(Cn6ccnc6)COC5)cc4)cnc23)c1` [Compound 105, 6-(4-((3-((1H-imidazol-1-yl)methyl)oxetan-3-yl)oxy)phenyl)-3-(3-(methylsulfonyl)phenyl)pyrazolo[1,5-a]pyrimidine], in that order: 9 nM and 140 nM.
For the compound `C[C@@H]1CNC[C@H](C)N1c1ccc(-c2cnc3c(-c4cccc5c(C(N)=O)cccc45)cnn3c2)cc1` [Compound 10, 5-(6-(4-((2S,6R)-2,6-dimethylpiperazin-1-yl)phenyl)pyrazolo[1,5-a]pyrimidin-3-yl)-1-naphthamide], the IC50 in the experiment on BMP4 is 140 nM; on ALK1, 44 nM and 20 nM; in experiment [1], 353 nM.
Take `C[C@@H]1CNC[C@H](C)N1c1ccc(-c2cnc3c(-c4cccc([S+](=O)([O-])C5CC5)c4)cnn3c2)cc1` [Compound 111, 3-(3-(cyclopropylsulfonyl)phenyl)-6-(4-((2R,6S)-2,6-dimethylpiperazin-1-yl)phenyl)pyrazolo[1,5-a]pyrimidine]: the IC50 was 180 nM and 170 nM on ALK2; 850 nM at ALK1.
In the case of `N/C(=N/O)c1ccc(-c2cnn3cc(-c4ccc(N5CCNCC5)cc4)cnc23)c2ccccc12` [Compound 15, N′-hydroxy-4-(6-(4-(piperazin-1-yl)phenyl)pyrazolo[1,5-a]pyrimidin-3-yl)-1-naphthimidamide], the IC50 in experiment [1] was found to be 2660 nM.
For `CC(O)c1cccc(-c2cnn3cc(-c4ccc(OC5(CN6CCCCC6)CC5)cc4)cnc23)c1` (stereo not drawn) [Compound 143, 1-(3-(6-(4-(1-(piperidin-1-ylmethyl)cyclopropoxy)phenyl)pyrazolo[1,5-a]pyrimidin-3-yl)phenyl)ethanol], on ALK2, the IC50 was 57 nM and 56 nM.
Turning to `CC[S+](=O)([O-])c1cccc(-c2cnn3cc(-c4ccc(N5[C@H](C)CNC[C@@H]5C)cc4)cnc23)c1` [Compound 104, 6-(4-((2R,6S)-2,6-dimethylpiperazin-1-yl)phenyl)-3-(3-(ethylsulfonyl)phenyl)pyrazolo[1,5-a]pyrimidine], the IC50 on ALK2 was 96 nM and 70 nM; in the experiment with BMP4, 230 nM; at ALK1, 71 nM.

(Values after patent US10513521B2, “Compositions and methods for inhibiting BMP” (The Brigham and Women's Hospital, Inc., priority 2014, dated 2019).)
